In patent US20250228239A1, “MOLECULES HAVING PESTICIDAL UTILITY, AND INTERMEDIATES, COMPOSITIONS, AND PROCESSES, RELATED THERETO” (priority 2024, published 2025):
Like-named read-outs stand apart in the source and are kept apart here.

How the values were obtained:
Format in all cases: in vivo
[1] = test system: Beet Armyworm (Spodoptera exigua, LAPHEG); experiment: Bioassays on Beet Armyworm (BAW), 128-well diet tray assay; conditions: Spodoptera exigua
Outline: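 Second-instar larvae, one to five per well, were placed on artificial diet surface-treated with 50 μg/cm^2 compound in 90:10 acetone-water, eight wells per treatment. Trays were held 5–7 days at 25 °C, 14:10 light-dark. Percent mortality per well was averaged over eight wells.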

[2] = test system: Cabbage Looper (Trichoplusia ni, TRIPNI); experiment: Bioassays on Cabbage Looper (CL), 128-well diet tray assay; conditions: Trichoplusia ni
Outline: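 Activity is mean percent mortality over eight wells of second-instar larvae exposed to diet treated at 50 μg/cm^2 for 5–7 days at 25° C.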

[3] = test system: Yellow Fever Mosquito (Aedes aegypti, AEDSAE); conditions: for YFM rating: Table ABC / ABC-DP rating
Outline: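 Compounds from DMSO master plates (4000 ppm stock) diluted in 90:10 water/acetone, then dispensed into six replicate plates and infested with ~1-day-old Aedes aegypti larvae in liver-powder water. Held covered at room temperature for 3 days; each well scored for larval mortality and graded on a rating scale.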

[4] = Beet Armyworm, Table ABC / ABC-DP rating, read-out: BAW rating
[5] = Cabbage Looper, Table ABC / ABC-DP rating, read-out: CL rating
[6] = Table ABC: Biological Results, species BAW, read-out: BAW
[7] = Table ABC: Biological Results, species CL, read-out: CL
[8] = Table ABC: Biological Results, species YFM
[9] = Beet Armyworm, rating class, read-out: BAW
[10] = Cabbage Looper, rating class, read-out: CL
[11] = Yellow Fever Mosquito, rating class

O=C(NNc1ccccn1)c1cc(NC(=O)[C@H]2[C@H](c3cc(Cl)cc(Cl)c3)C2(Cl)Cl)ccc1Cl (relative stereo) [F2502, trans-2,2-dichloro-N-(4-chloro-3-(2-(pyridin-2-yl)hydrazine-1-carbonyl)phenyl)-3-(3,5-dichlorophenyl)cyclopropane-1-carboxamide]
pest or weed control at 50 µg/cm2 [1, 4]: 50 to 100%
pest or weed control at 50 µg/cm2 [2, 5]: 50 to 100%
YFM rating ([3]; Yellow Fever Mosquito): A (80–100)

O=C1CC(C(=O)Nc2c(F)ccc(NC(=O)c3cc(NC(=O)[C@H]4[C@H](c5ccc(F)c(C(F)(F)F)c5)C4(Cl)Cl)ccc3Cl)c2F)C1 [F1303, 2-Chloro-5-((1R,3R)-2,2-dichloro-3-(4-fluoro-3-(trifluoromethyl)phenyl)cyclopropane-1-carboxamido)-N-(2,4-difluoro-3-(3-oxocyclobutane-1-carboxamido)phenyl)benzamide]
pest or weed control at 50 µg/cm2 [1, 6]: 50 to 100%
pest or weed control at 50 µg/cm2 [2, 7]: 50 to 100%
YFM [3, 8]: A (80–100)

O=C(Nc1ccc(F)c(NC(=O)C(F)F)c1F)c1cc(NC(=O)[C@H]2[C@H](c3ccc(Cl)c(Br)c3)C2(Cl)Cl)ccc1Cl (relative stereo) [F1359, trans-5-(3-(3-Bromo-4-chlorophenyl)-2,2-dichlorocyclopropane-1-carboxamido)-2-chloro-N-(3-(2,2-difluoroacetamido)-2,4-difluorophenyl)benzamide]
pest or weed control at 50 µg/cm2 [1, 6]: 50 to 100%
pest or weed control at 50 µg/cm2 [2, 7]: 50 to 100%
YFM [3, 8]: A (80–100)

CCNC(=O)c1c(Cl)ccc(NC(=O)[C@H]2[C@H](c3ccc(F)c(Cl)c3)C2(Cl)Cl)c1Cl (relative stereo) [F2019, trans-2,6-Dichloro-3-(2,2-dichloro-3-(3-chloro-4-fluorophenyl)cyclopropane-1-carboxamido)-N-ethylbenzamide]
pest or weed control at 50 µg/cm2 [1, 4]: 50 to 100%
pest or weed control at 50 µg/cm2 [2, 5]: 50 to 100%
YFM rating ([3]; Yellow Fever Mosquito): A (80–100)

CC(F)(F)C(=O)Nc1c(F)ccc(NC(=O)c2cc(NC(=O)[C@H]3[C@H](c4ccc(Cl)c(Cl)c4)C3(Cl)Cl)ccc2Cl)c1F [F1249, 2-Chloro-5-((1R,3R)-2,2-dichloro-3-(3,4-dichlorophenyl)cyclopropane-1-carboxamido)-N-(3-(2,2-difluoropropanamido)-2,4-difluorophenyl)benzamide]
pest or weed control at 50 µg/cm2 [1, 6]: 50 to 100%
pest or weed control at 50 µg/cm2 [2, 7]: 50 to 100%
YFM [3, 8]: A (80–100)

O=C(Nc1ccc(F)c(NC(=O)C(C(F)(F)F)C(F)(F)F)c1F)c1cc(NC(=O)[C@H]2[C@H](c3ccc(Cl)c(Cl)c3)C2(Cl)Cl)ccc1Cl [F1607, 2-Chloro-5-((1R,3R)-2,2-dichloro-3-(3,4-dichlorophenyl)cyclopropane-1-carboxamido)-N-(2,4-difluoro-3-(3,3,3-trifluoro-2-(trifluoromethyl)propanamido)phenyl)benzamide]
pest or weed control at 50 µg/cm2 [1, 9]: 50 to 100%
pest or weed control at 50 µg/cm2 [2, 10]: 50 to 100%
YFM [3, 11]: A (80–100)

CC(C)(C)CCCC(=O)Nc1c(F)ccc(NC(=O)c2cc(NC(=O)[C@H]3[C@H](c4ccc(F)c(C(F)(F)F)c4)C3(Cl)Cl)ccc2Cl)c1F [F1856, 2-Chloro-5-((1R,3R)-2,2-dichloro-3-(4-fluoro-3-(trifluoromethyl)phenyl)cyclopropane-1-carboxamido)-N-(3-(5,5-dimethylhexanamido)-2,4-difluorophenyl)benzamide]
pest or weed control at 50 µg/cm2 [1, 4]: 50 to 100%
pest or weed control at 50 µg/cm2 [2, 5]: 50 to 100%
YFM rating ([3]; Yellow Fever Mosquito): B (More than 0 – Less than 80)

O=C(COC(F)(F)F)Nc1c(F)ccc(NC(=O)c2cc(NC(=O)[C@H]3[C@H](c4ccc(F)c(Cl)c4)C3(Cl)Cl)ccc2Cl)c1F [F1768, 2-Chloro-5-((1R,3R)-2,2-dichloro-3-(3-chloro-4-fluorophenyl)cyclopropane-1-carboxamido)-N-(2,4-difluoro-3-(2-(trifluoromethoxy)acetamido)phenyl)benzamide]
pest or weed control at 50 µg/cm2 [1, 4]: 50 to 100%
pest or weed control at 50 µg/cm2 [2, 5]: 50 to 100%
YFM rating ([3]; Yellow Fever Mosquito): A (80–100)

O=C(Nc1ccc(F)cc1F)c1cc(NC(=O)[C@H]2[C@H](c3cc(Br)cc(S(F)(F)(F)(F)F)c3)C2(Cl)Cl)ccc1Cl (relative stereo) [F1031, trans-5-(3-(3-Bromo-5-(pentafluoro-λ^6-sulfanyl)phenyl)-2,2-dichlorocyclopropane-1-carboxamido)-2-chloro-N-(2,4-difluorophenyl)benzamide]
pest or weed control at 50 µg/cm2 [1, 6]: 50 to 100%
pest or weed control at 50 µg/cm2 [2, 7]: 50 to 100%
YFM [3, 8]: A (80–100)

O=C(NCC(F)(F)F)c1cc(NC(=O)[C@H]2[C@H](c3cc(F)c(F)c(Br)c3)C2(Cl)Cl)ccc1Cl (relative stereo) [F2003, trans-5-(3-(3-Bromo-4,5-difluorophenyl)-2,2-dichlorocyclopropane-1-carboxamido)-2-chloro-N-(2,2,2-trifluoroethyl)benzamide]
pest or weed control at 50 µg/cm2 [1, 4]: 50 to 100%
pest or weed control at 50 µg/cm2 [2, 5]: 50 to 100%
YFM rating ([3]; Yellow Fever Mosquito): A (80–100)

O=C(CC1(C(F)(F)F)CC1)Nc1c(F)ccc(NC(=O)c2cc(NC(=O)[C@H]3[C@H](c4ccc(F)c(C(F)(F)F)c4)C3(Cl)Cl)ccc2Cl)c1F [F1836, 2-Chloro-5-((1R,3R)-2,2-dichloro-3-(4-fluoro-3-(trifluoromethyl)phenyl)cyclopropane-1-carboxamido)-N-(2,4-difluoro-3-(2-(1-(trifluoromethyl)cyclopropyl)acetamido)phenyl)benzamide]
pest or weed control at 50 µg/cm2 [1, 4]: 50 to 100%
pest or weed control at 50 µg/cm2 [2, 5]: 50 to 100%
YFM rating ([3]; Yellow Fever Mosquito): A (80–100)

O=C(NCC(F)(F)F)c1cc(NC(=O)[C@H]2[C@@H](c3cc(F)c(Cl)c(Cl)c3)C2(Cl)Cl)ccc1Cl (relative stereo) [F2007, cis-2-Chloro-5-(2,2-dichloro-3-(3,4-dichloro-5-fluorophenyl)cyclopropane-1-carboxamido)-N-(2,2,2-trifluoroethyl)benzamide]
pest or weed control at 50 µg/cm2 [1, 4]: 50 to 100%
pest or weed control at 50 µg/cm2 [2, 5]: 50 to 100%
YFM rating ([3]; Yellow Fever Mosquito): A (80–100)

CCOC(=O)C(F)(F)CNC(=O)c1cc(NC(=O)[C@H]2[C@H](c3cc(Cl)cc(Cl)c3)C2(Cl)Cl)cc(F)c1Cl (relative stereo) [F2089, trans-Ethyl 3-(2-chloro-5-(2,2-dichloro-3-(3,5-dichlorophenyl)cyclopropane-1-carboxamido)-3-fluorobenzamido)-2,2-difluoropropanoate]
pest or weed control at 50 µg/cm2 [1, 4]: 50 to 100%
pest or weed control at 50 µg/cm2 [2, 5]: 50 to 100%
YFM rating ([3]; Yellow Fever Mosquito): A (80–100)

Nc1c(F)ccc(NC(=O)c2cc(NC(=O)[C@H]3[C@H](c4cc(F)c(Cl)c(Cl)c4)C3(Cl)Cl)ccc2Cl)c1F (relative stereo) [F1046, trans-N-(3-Amino-2,4-difluorophenyl)-2-chloro-5-(2,2-dichloro-3-(3,4-dichloro-5-fluorophenyl)cyclopropane-1-carboxamido)benzamide]
pest or weed control at 50 µg/cm2 [1, 6]: 50 to 100%
pest or weed control at 50 µg/cm2 [2, 7]: 50 to 100%
YFM [3, 8]: A (80–100)

O=C(Nc1ccc(F)c(NC(=O)C(F)(F)C(F)F)c1F)c1cc(NC(=O)[C@H]2[C@H](c3ccc(F)c(C(F)(F)F)c3)C2(Cl)Cl)ccc1Cl [F1301, 2-Chloro-5-((1R,3R)-2,2-dichloro-3-(4-fluoro-3-(trifluoromethyl)phenyl)cyclopropane-1-carboxamido)-N-(2,4-difluoro-3-(2,2,3,3-tetrafluoropropanamido)phenyl)benzamide]
pest or weed control at 50 µg/cm2 [1, 6]: 50 to 100%
pest or weed control at 50 µg/cm2 [2, 7]: 50 to 100%
YFM [3, 8]: A (80–100)

O=C(Nc1ccc(F)c(NC(=O)C(F)(F)C(F)(F)C(F)(F)F)c1F)c1cc(NC(=O)[C@H]2[C@H](c3ccc(F)c(C(F)(F)F)c3)C2(Cl)Cl)ccc1Cl [F1450, 2-Chloro-5-((1R,3R)-2,2-dichloro-3-(4-fluoro-3-(trifluoromethyl)phenyl)cyclopropane-1-carboxamido)-N-(2,4-difluoro-3-(2,2,3,3,4,4,4-heptafluorobutanamido)phenyl)benzamide]
pest or weed control at 50 µg/cm2 [1, 9]: 50 to 100%
pest or weed control at 50 µg/cm2 [2, 10]: 50 to 100%
YFM [3, 11]: A (80–100)

Cc1cc(NC(=O)[C@H]2[C@H](c3ccc(F)c(Cl)c3)C2(Cl)Cl)cc(C(=O)Nc2ccccc2)c1Cl (relative stereo) [F1183, trans-2-Chloro-5-(2,2-dichloro-3-(3-chloro-4-fluorophenyl)cyclopropane-1-carboxamido)-3-methyl-N-phenylbenzamide]
pest or weed control at 50 µg/cm2 [1, 6]: 50 to 100%
pest or weed control at 50 µg/cm2 [2, 7]: 50 to 100%
YFM [3, 8]: A (80–100)

O=C(Nc1ccccc1)c1c(Cl)ccc(NC(=O)[C@H]2[C@H](c3ccc(F)c(Cl)c3)C2(Cl)Cl)c1Cl (relative stereo) [F1104, trans-2,6-Dichloro-3-(2,2-dichloro-3-(3-chloro-4-fluorophenyl)cyclopropane-1-carboxamido)-N-phenylbenzamide]
pest or weed control at 50 µg/cm2 [1, 6]: 50 to 100%
pest or weed control at 50 µg/cm2 [2, 7]: 50 to 100%
YFM [3, 8]: A (80–100)

CCN(C(=O)COC(F)(F)F)c1c(F)ccc(NC(=O)c2cc(NC(=O)[C@H]3[C@H](c4ccc(F)c(C(F)(F)F)c4)C3(Cl)Cl)ccc2Cl)c1F [F1789, 2-Chloro-5-((1R,3R)-2,2-dichloro-3-(4-fluoro-3-(trifluoromethyl)phenyl)cyclopropane-1-carboxamido)-N-(3-(N-ethyl-2-(trifluoromethoxy)acetamido)-2,4-difluorophenyl)benzamide]
pest or weed control at 50 µg/cm2 [1, 4]: 50 to 100%
pest or weed control at 50 µg/cm2 [2, 5]: 50 to 100%
YFM rating ([3]; Yellow Fever Mosquito): A (80–100)
